Measurements taken from the supplement of paper PMC10307832.

Legend:
Experiment in all cases: relative viability (nuclei count vs DMSO), 5 days (fraction); higher = more cells survive
Vismodegib + Alpelisib = compound: CS(=O)(=O)c1ccc(C(=O)Nc2ccc(Cl)c(-c3ccccn3)c2)c(Cl)c1 [Vismodegib] + Cc1nc(NC(=O)N2CCC[C@H]2C(N)=O)sc1-c1ccnc(C(C)(C)C(F)(F)F)c1 [Alpelisib] (partner 2 µM)
How it was run: (§1)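 One day after seeding in 1536-well plates, lung cancer cell lines were dosed by pin tool. Dosing was either single-drug or a fixed anchor-drug dose plus five library-drug doses (not always all listed) in √10 steps. After 5 days, nuclei were stained in one fix-and-stain step and counted on 4× images, and relative viability is the nuclei count of treated wells over that of vehicle wells, given as the median of duplicate plates.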

VE-821 + Decitabine = compound: CS(=O)(=O)c1ccc(-c2cnc(N)c(C(=O)Nc3ccccc3)n2)cc1 [VE-821] + Nc1ncn([C@H]2C[C@H](O)[C@@H](CO)O2)c(=O)n1 [Decitabine] (partner 2 µM)
How it was run: as §1

VE-821 + Phenformin = compound: CS(=O)(=O)c1ccc(-c2cnc(N)c(C(=O)Nc3ccccc3)n2)cc1 [VE-821] + N=C(N)NC(=N)NCCc1ccccc1 [Phenformin] (partner 250 µM)
How it was run: as §1

Ruxolitinib + Lapatinib = compound: N#CC[C@H](C1CCCC1)n1cc(-c2ncnc3[nH]ccc23)cn1 [Ruxolitinib] + CS(=O)(=O)CCNCc1ccc(-c2ccc3ncnc(Nc4ccc(OCc5cccc(F)c5)c(Cl)c4)c3c2)o1 [Lapatinib] (partner 2 µM)
How it was run: as §1

Cell Line	relative viability (Vismodegib + Alpelisib; first compound 0.08 µM)	relative viability (Vismodegib + Alpelisib; first compound 0.253 µM)	relative viability (Vismodegib + Alpelisib; first compound 0.8 µM)	relative viability (Vismodegib + Alpelisib; first compound 2.53 µM)	relative viability (Vismodegib + Alpelisib; first compound 8 µM)	relative viability (VE-821 + Decitabine; first compound 0.08 µM)	relative viability (VE-821 + Decitabine; first compound 0.253 µM)	relative viability (VE-821 + Decitabine; first compound 0.8 µM)	relative viability (VE-821 + Decitabine; first compound 2.53 µM)	relative viability (VE-821 + Decitabine; first compound 8 µM)	relative viability (VE-821 + Phenformin; first compound 0.08 µM)	relative viability (VE-821 + Phenformin; first compound 0.253 µM)	relative viability (VE-821 + Phenformin; first compound 0.8 µM)	relative viability (VE-821 + Phenformin; first compound 2.53 µM)	relative viability (VE-821 + Phenformin; first compound 8 µM)	relative viability (Ruxolitinib + Lapatinib; first compound 0.08 µM)	relative viability (Ruxolitinib + Lapatinib; first compound 0.253 µM)	relative viability (Ruxolitinib + Lapatinib; first compound 0.8 µM)	relative viability (Ruxolitinib + Lapatinib; first compound 2.53 µM)	relative viability (Ruxolitinib + Lapatinib; first compound 8 µM)
NCI-H1734	0.651	0.586	0.661	0.63	0.719	0.585	0.473	0.515	0.522	0.448	0.392	0.386	0.377	0.402	0.271	1.09	1	1.21	0.87	0.936
NCI-H1651	0.922	0.877	1.04	0.81	1.09	0.486	0.697	0.614	0.673	0.543	0.349	0.305	0.361	0.32	0.283	0.958	0.92	0.884	0.767	0.903
A549	0.658	0.673	0.73	0.734	0.69	0.319	0.454	0.221	0.318	0.281	0.182	0.214	0.157	0.13	0.103	0.998	1.03	1.04	0.918	0.636
NCI-H2170	0.836	0.814	0.872	0.836	0.794	0.515	0.469	0.487	0.434	0.295	0.416	0.399	0.358	0.412	0.359	0.303	0.253	0.302	0.276	0.301
NCI-H1975	0.621	0.649	0.617	0.611	0.721	0.4	0.38	0.358	0.381	0.324	0.397	0.394	–	0.418	0.36	0.952	0.955	0.831	0.71	0.858
NCI-H1437	0.972	0.901	1.06	0.961	0.987	0.579	0.488	0.593	0.598	0.497	0.318	0.319	0.329	0.306	0.274	0.976	0.883	0.926	0.695	0.57
HOP-62	0.92	0.906	0.978	0.919	1.12	0.185	0.261	0.265	0.214	0.25	0.671	0.611	0.77	0.696	0.667	–	1.07	1.16	0.91	0.914
NCI-H2405	–	0.81	0.676	0.603	0.875	0.805	0.698	0.775	0.814	0.761	0.37	0.373	0.36	0.453	0.432	–	1	1.23	0.879	0.643
SK-MES-1	0.851	0.956	0.802	0.827	0.837	0.373	0.406	0.38	0.361	0.284	0.708	0.626	0.718	0.628	0.445	0.493	0.412	0.448	0.474	0.42
LC-2-ad	0.894	0.909	0.859	0.818	0.918	0.747	0.769	0.955	0.865	0.916	0.666	0.593	0.661	0.686	0.591	0.989	0.878	0.868	0.773	0.34
NCI-H1944	0.768	0.862	0.744	0.809	0.777	0.418	0.408	0.418	0.438	0.343	0.235	0.2	0.172	0.238	0.157	0.823	0.903	0.798	0.729	0.815
NCI-H322M	0.813	0.756	0.744	0.917	0.773	0.693	0.639	0.752	0.793	0.553	0.504	0.766	0.741	0.577	0.364	0.638	0.68	0.67	0.687	0.873
HCC-366	0.436	0.467	0.362	0.402	0.556	0.398	0.381	0.323	0.226	0.121	0.709	0.57	0.555	0.502	0.12	1.11	0.982	1.1	0.937	0.747
HCC-78	0.369	0.346	0.267	0.359	0.362	0.619	0.597	0.719	0.785	0.699	0.646	0.639	0.746	0.731	0.617	0.37	0.294	0.441	0.553	0.199
EKVX	0.946	0.974	0.907	0.871	0.875	0.406	0.366	0.322	0.327	0.38	0.241	0.223	0.204	0.221	0.226	0.224	0.194	0.231	0.207	0.188
HARA	0.833	0.863	0.817	0.8	0.788	0.551	0.636	0.613	0.615	0.516	0.497	0.459	0.469	0.484	0.356	0.766	0.631	0.76	0.7	0.675
LXF-289	1	0.993	1.07	0.994	1.04	0.426	0.413	0.467	0.437	0.556	0.541	0.53	0.532	0.527	0.562	0.849	0.891	0.861	0.825	0.786
NCI-H1793	–	0.642	0.77	0.809	0.671	0.55	0.468	–	0.637	0.461	0.437	0.3	0.325	0.49	0.239	0.647	0.665	0.905	0.896	0.493
NCI-H650	1.1	1.14	1.14	1.04	1.17	0.311	0.342	0.383	0.436	0.366	0.448	0.429	0.45	0.494	0.468	–	0.925	1.05	0.842	0.667
NCI-H647	1.09	0.979	1.15	0.798	1.45	0.401	0.5	0.385	0.385	0.235	0.556	0.532	0.454	0.533	0.211	1.11	1.09	1.19	0.651	1.02
NCI-H3122	0.798	0.726	0.816	0.78	0.629	0.474	0.482	0.485	0.46	0.428	0.394	0.348	0.354	0.349	0.332	0.928	1.04	0.98	0.848	0.934
PC-3 [JPC-3]	0.971	1.04	1.04	0.941	0.972	0.87	0.832	0.95	0.912	0.799	0.455	0.504	0.448	0.469	0.451	0.452	0.431	0.46	0.488	0.505
NCI-H1355	0.902	0.882	0.838	0.853	0.787	0.362	0.347	0.333	0.371	0.36	0.469	0.442	0.459	0.526	0.369	0.939	0.898	1.01	0.902	0.863
NCI-H1792	0.608	0.687	0.615	0.667	0.647	0.639	0.536	0.482	0.586	0.529	0.332	–	0.281	0.342	0.258	0.936	0.831	0.846	0.845	0.824
NCI-H838	0.904	0.952	1.09	0.978	1.02	0.461	0.488	0.564	0.559	0.456	0.605	0.454	0.528	0.599	0.385	1	0.803	0.873	0.446	0.406
